# Test results from paper PMC3920720, “Triterpenes and Steroids from Euphorbia denticulata Lam. With Anti-Herpes Symplex Virus Activity” (Iranian Journal of Pharmaceutical Research : IJPR, 2013).
# Like-named read-outs stand apart in the source and are kept apart here.
# Tests used:
# [1] = tested on: HSV-1; assay: Antiviral assay using MTS method (HSV-1 infected Vero cells); assay type: cell-based, Herpes simplex virus type 1 (HSV-1, strain KOS); settings: for Selectivity index (SI) = CC50/EC50: HSV-1, CC50 on Vero cells / EC50; for EC50: read-out: EC50 ±SEM (concentration producing 50% inhibition of virus induced cytopathic effects)
# [2] = tested on: Vero cells; assay: Cytotoxicity assay (MTS) on Vero cells; assay type: cell-based, African green monkey; settings: Vero cells, MTS, 3 days incubation, n=3
# Protocol: (§1) For cytotoxicity and antiviral assays cells were grown in Dulbeccoʼs Modified Eagleʼs growth Medium ( DMEM; Sigma, USA) supplemented with 2% of fetal bovine serum (FBS; Gibco, Germany), 100 μg/mL of streptomycin, 100 UI/mL of penicillin and 0.25 μg/mL amphotericin B ( Gibco, Germany) and 0.14% (v/v) sodium bicarbonate. All the cells were cultured at 37°C in a humidified atmosphere supplied with 5% CO2.
# (§2) The Vero cells were seeded onto a 96-well plate at a concentration of 3.5×10^5 Vero cells per mL and a volume of 100 μL per well. Following 24 h incubation at 37 °C, a confluent cell monolayer was confirmed and cell media was removed. Test compounds were serially diluted with the culture medium supplemented with 2% serum to reach the different concentrations. Negative control dilution of DMSO at 0.1 % was also included. An aliquot of 100 μL/well of each diluted compound or DMSO was added to the plates in triplicate. After incubation at 37 °C with 5% CO2 for 3 days, MTS (Cell Titer 96; Promega, USA) was added to each well with a volume of 20 μL. The trays were further incubated for 2 h to allow MTS production. The absorbances were determined with an ELISA reader (Stata Fax 2100, USA) at a test wavelength of 490 nm. Data were calculated as the percentage of inhibition using the following formula: inhibition % =[100 – ( At/ As) × 100]%. At and As refer to the absorbances of the test substances and the solvent control, respectively. CC50 values, defined as the concentration of 50% cellular cytotoxicity (CC50) of test compounds ([7], [8]).
# [3] = Cytotoxicity assay (MTS) on Vero cells; assay type: cell-based, African green monkey; settings: African green monkey
# Protocol: as §1, §2
# [4] = tested on: HSV-1; assay: Time-course anti-virus analysis (MTS, addition pre-, co- or post-infection); assay type: cell-based, Herpes simplex virus type 1 (HSV-1, strain KOS); settings: post-infection; 1, 10, 100 μg/mL; added 1 h before to 24 h after infection; MTS after 3 days
# Protocol: Different non-cytotoxic concentrations (≤ CC50 values) of test compounds were added to culture cells in triplicate at different times pre-infection or post-infection. HSV-1(10 TCID50 per well) was inoculated onto confluent monolayers of Vero cells for 2 h. After 3 days, MTS test and antiviral activity were carried out as previously described ([3]).
# Inhibition was evaluated by MTS assay after 3 days of infection and expressed as percentage inhibition.
# Figure 3 Inhibitory effect of test compounds at different concentrations (1, 10, 100 μg/mL) at various times pre-infection , co-infection and post-infection of herpesvirus (HSV-1) to Vero cells. a) betulin, and b) (3β,23E)-Cycloarta-23-ene-3,25-diol were added with the HSV-1 infected Vero cells at various times period like pre-infection (− 1 h), co-infection (0 h) or post-infection( 2-24 h). After 3 days of incubation at 37°C, inhibition was evaluated by MTS assay and expressed as the inhibition percentage. Each point represents the mean of three independent experiments
# [5] = Human alphaherpesvirus 1, Vero, 72 h
# [6] = CC50 ±SEM (50% cytotoxic concentration on vero cells)
Structure (SMILES),Selectivity index (SI) = CC50/EC50 [1],Selectivity index (SI) = CC50/EC50 ([1]; listed as betulin),"EC50 [1, 5] [µg/mL]",CC50 ±SEM (50% cytotoxic concentration on vero cells) [2] [µg/mL],"CC50 at 3 days ([3]; Vero cells, MTS, 3 days incubation, n=3, read-out: CC50 ±SEM (50% cytotoxic concentration on vero cells)) [µg/mL]",Time of compound addition giving the highest inhibition against HSV-1 infection [4] [h],"EC50 ([1]; Human alphaherpesvirus 1, 72 h, HSV-1 in Vero cells, MTS, 3 days, three separate experiments) [µg/mL]","CC50 at 3 days [3, 6] [µg/mL]"
"C=C(C)[C@@H]1CC[C@]2(CO)CC[C@]3(C)[C@H](CC[C@@H]4[C@@]5(C)CC[C@H](O)C(C)(C)[C@@H]5CC[C@]43C)[C@@H]12 [Betulin, lup-20(29)-ene-3β,28-diol]",7.83,7.831,84.37 ± 0.018,660.72 ± 0.072,660.72 ± 0.072,≤ 2.0,,
"Nc1nc2c(ncn2COCCO)c(=O)[nH]1 [Acyclovir, reference compound]",42.66,,,,,,3,128 ± 0.215
"C[C@H](C/C=C/C(C)(C)O)[C@H]1CC[C@@]2(C)C3CCC4C(C)(C)[C@@H](O)CC[C@@]45C[C@@]35CC[C@]12C (stereo partly drawn) [(3β,23E)-Cycloarta-23-ene-3,25-diol, Cycloart-23E-ene-3β,25-diol]",12.57,,86.63 ± 0.03,,,≤ 2.0,,1089.2 ± 0.25
